Experimental findings from patent US20040009904A1, “APL immunoreactive peptides, conjugates thereof and methods of treatment for aPL antibody-mediated pathologies” (priority 1995, published 2004) are described below.

Bridge positions count the residues as written; N and C are the ends. Square brackets hold non-standard residues; d marks the D form. Peptide text beside a SMILES is read from it. NMeL = CN[C@@H](CC(C)C)C(=O)O; Phg = N[C@H](C(=O)O)c1ccccc1; Orn = NCCC[C@H](N)C(=O)O; Aib = CC(C)(N)C(=O)O

The assay has as its target ACA-6501. Kind of assay: Competitive binding peptide ACA ELISA, cardiolipin/β2-GPI-coated plates. More on the design: species or system human. Particulars: Optimization of Peptide 3G3; inf = no 50% inhibition. How it is done: A variation of this assay uses microtitration plates coated with human β2-glycoprotein I/cardiolipin (β2-GPI/CL) instead of tetravalent peptide and tests the ability of monomeric peptides to block the binding of aPL antibody to the epitope(s) on β2-GPI/CL. In this assay, IgG-depleted human serum at an optimized concentration is used as a source of β2-GPI. The monomeric peptides at several concentrations are incubated with an optimized concentration of aPL antibody in a manner analogous to the assay which employs tetravalent peptide as a plate substrate. Following the incubation of aPL/peptide in (β2-GPI/CL) plates, antibody binding and the peptide concentration required for 50% inhibition is determined at half-maximal absorbance as in the tetravalent assay.
Peptide sequences for all five peptides immediately follow the table. All were tested using the competitive binding peptide ACA ELISA using CL/β2-GPI plates as described herein.
(B) Immulon I® 96-well, flat-bottom, polystyrene microtitration plates (Dynatech Laboratories, Inc., Chantilly, Va.) were coated with 30 μL/well of cardiolipin (CL, 50 μg; Sigma Chemical Co., St. Louis, Mo.) in ethanol. Two control wells received 30 μL ethanol only. After overnight evaporation at 4° C., each well was blocked with 200 μL of 5% (w/v) fish gelatin in PBS for 2 hours at RT.
During this incubation, variable amounts of each of six peptides were mixed with 22 μL ACA-6501 serum diluted with 3% fish gelatin in 1:1 TBS/PBS (final dilution of 1:400) in a final volume of 220 μL using Eppendorf microcentrifuge tubes. Specifically, in tube #1 were mixed 181.3 μL of 3% fish gelatin in TBS-PBS, 16.7 μL of peptide stock solution plus 22 μL of ACA-6501 serum diluted 40 times in 3% fish gelatin/TBS-PBS. Stock solutions ranged from 450-800 μg/mL for peptides #951 (diserine non-cyclized negative control), #952 (a lot of LJP 690), and thioethers CCTE-3G3, CHTE-3G3, HCTE-3G3 and HHTE-3G3. To tube #2 the following were added: 148 μL fish gelatin/TBS-PBS, […] of peptide stock solution, plus 22 μL of 40 times diluted ACA-6501 serum. Tube #3 contained 48 μL fish gelatin/TBS-PBS, […] of peptide stock solution, plus 22 μL of 40 times diluted ACA-6501 serum. The control tube #4 received 396 μL fish gelatin/TBS-PBS and 44 μL of 40 times diluted ACA-6501 serum (no peptide). Each of the tubes incubated for approximately 1 hour at RT.
The CL/β2-GPI microtitration plate was washed 5 times with TBS and 100 μL aliquots in duplicate from Eppendorf tubes #1, 2, 3, and 4 containing the antibody-peptide (or no peptide mixtures) were added to the wells. A volume of 100 μL from tube #4 was added to the duplicate control wells containing no cardiolipin. The microtitration plate was incubated for 1 hour at RT with agitation at 40 rpm in an orbital shaker (American Scientific, Rotator V), washed 5 times with TBS and then 100 μL of 1:1000 goat anti-human IgG alkaline phosphatase conjugate (Zymed, Cat No. 62-8422) in 0.5% (w/v) BSA-TBS was added. Following incubation for 1 hour at RT, the microtitration plate was again washed 5 times with TBS and the colorimetric enzyme detection developed by adding 100 μL of PMPP solution (7.8 g phenolphthalein monophosphate plus 69.5 g of 2-amino-2-methyl-1-propanol in 100 mL water stock solution diluted 1:26 with water). After 21 minutes, the reaction was stopped by adding 50 μL of 0.2 M Na2HPO4 (Mallinckrodt) to each well. Absorbance at 550 nm was read in a microplate reader (Bio-Tek Instruments, Model EL 311). The amount of peptide that inhibited ACA-6501 binding by 50%, the IC50, was calculated from the graph at the intersection of half-maximal absorbance with amount of peptide added.
On the technique in general: In an ELISA, binding on a coated surface is turned into a signal by an enzyme label.
Turning to `CC(C)C[C@@H]1NC(=O)[C@@H](NC(=O)[C@@H]2CCCN2C(=O)CNC(=O)[C@H](C)N)CSSC[C@@H](C(=O)NCC(=O)O)NC(=O)[C@H](CC(C)C)NC(=O)[C@H](CCCCN)NC(=O)CNC(=O)[C@H](CC(C)C)NC(=O)[C@H](C(C)C)NC(=O)CNC1=O` [A G P C L G V L G K L C G] (H-AGPCLGVLGKLCG-OH; disulfide 4-12), the “with ACA 6501 150 ug/mL” value stood at 450 µg/mL.
The figure for `CC(C)C[C@@H]1NC(=O)[C@H](CCCCN)NC(=O)CNC(=O)[C@H](CC(C)C)NC(=O)[C@H](C(C)C)NC(=O)CNC(=O)[C@H](C)NC(=O)[C@@H](N)CSSC[C@@H](C(=O)O)NC1=O` [C A G V L G K L C] (H-CAGVLGKLC-OH; disulfide 1-9) is 200 µg/mL.
For `CC(C)C[C@@H]1NC(=O)[C@H](CCCCN)NC(=O)CNC(=O)[C@H](CC(C)C)NC(=O)[C@H](C(C)C)NC(=O)CNC(=O)CNC(=O)[C@@H](N)CSSC[C@@H](C(=O)O)NC1=O` [C G G V L G K L C] (H-CGGVLGKLC-OH; disulfide 1-9), the “with ACA 6501 150 ug/mL” value came to 310 µg/mL.
The figure for `CC[C@H](C)[C@@H]1NC(=O)[C@@H](N)CSSC[C@@H](C(=O)O)NC(=O)[C@H](CC(C)C)NC(=O)[C@H](CCCCN)NC(=O)CNC(=O)[C@H](CC(C)C)NC(=O)[C@H](C(C)C)NC(=O)CNC1=O` [C I G V L G K L C] (H-CIGVLGKLC-OH; disulfide 1-9) is 60 µg/mL; for `CC(C)C[C@@H]1NC(=O)[C@H](CCCCN)NC(=O)CNC(=O)[C@H](CC(C)C)NC(=O)[C@H](C(C)C)NC(=O)[C@H](C)NC(=O)[C@H](CC(C)C)NC(=O)[C@@H](N)CSSC[C@@H](C(=O)O)NC1=O` [C L A V L G K L C] (H-CLAVLGKLC-OH; disulfide 1-9) it is 170 µg/mL; for `CC(C)C[C@@H]1NC(=O)[C@H](C)NC(=O)CNC(=O)[C@H](CC(C)C)NC(=O)[C@@H](N)CSSC[C@@H](C(=O)O)NC(=O)[C@H](CC(C)C)NC(=O)[C@H](CCCCN)NC(=O)CNC1=O` [C L G A L G K L C] (H-CLGALGKLC-OH; disulfide 1-9) it is 260 µg/mL.
As to `CC(C)C[C@@H]1NC(=O)[C@H](CCCCN)NC(=O)CNC(=O)[C@H](CC(C)C)NC(=O)[C@@H]2CCCN2C(=O)CNC(=O)[C@H](CC(C)C)NC(=O)[C@@H](N)CSSC[C@@H](C(=O)O)NC1=O` [C L G P L G K L C] (H-CLGPLGKLC-OH; disulfide 1-9), the “with ACA 6501 150 ug/mL” value came out at 180 µg/mL.
The result for `CC(C)C[C@@H]1NC(=O)[C@H](C(C)C)NC(=O)CNC(=O)[C@H](CC(C)C)NC(=O)[C@@H](N)CSSC[C@@H](C(=O)O)NC(=O)[C@H](C)NC(=O)[C@H](CCCCN)NC(=O)CNC1=O` [C L G V L G K A C] (H-CLGVLGKAC-OH; disulfide 1-9) reads 360 µg/mL; that for `CC(C)C[C@@H]1NC(=O)[C@H](C(C)C)NC(=O)CNC(=O)[C@H](CC(C)C)NC(=O)[C@@H](N)CSSC[C@@H](C(=O)O)NC(=O)CNC(=O)[C@H](CCCCN)NC(=O)CNC1=O` [C L G V L G K G C] (H-CLGVLGKGC-OH; disulfide 1-9), 500 µg/mL; that for `CC(C)C[C@@H]1NC(=O)[C@H](CCCCN)NC(=O)CNC(=O)[C@H](CC(C)C)NC(=O)[C@H](C(C)C)NC(=O)CNC(=O)[C@H](CC(C)C)NC(=O)[C@@H](N)CSSC[C@@H](C(=O)N2CCC[C@H]2C(=O)NCC(=O)O)NC1=O` [C L G V L G K L C P G] (H-CLGVLGKLCPG-OH; disulfide 1-9), 460 µg/mL.
The figure for `CC(C)C[C@@H]1NC(=O)[C@H](C(C)C)NC(=O)CNC(=O)[C@H](CC(C)C)NC(=O)[C@@H](N)CSSC[C@@H](C(=O)O)NC(=O)[C@@H]2CCCN2C(=O)[C@H](CCCCN)NC(=O)CNC1=O` [C L G V L G K P C] (H-CLGVLGKPC-OH; disulfide 1-9) is 550 µg/mL; for `CC(C)C[C@@H]1NC(=O)[C@H](C(C)C)NC(=O)CNC(=O)[C@H](CC(C)C)NC(=O)[C@@H](N)CSSC[C@@H](C(=O)O)NC(=O)C(C)(C)NC(=O)[C@H](CCCCN)NC(=O)CNC1=O` [C L G V L G K aiB C] (H-CLGVLGK[Aib]C-OH; disulfide 1-9) it is more than 470 µg/mL.
The figure for `CC(C)C[C@@H]1NC(=O)[C@H](C(C)C)NC(=O)CNC(=O)[C@H](CC(C)C)NC(=O)[C@@H](N)CSSC[C@@H](C(=O)O)NC(=O)[C@@H](CC(C)C)NC(=O)[C@H](CCCCN)NC(=O)CNC1=O` [C L G V L G K dL C] (H-CLGVLGK[dL]C-OH; disulfide 1-9) is 140 µg/mL; for `CC(C)C[C@@H]1NC(=O)[C@H](C(C)C)NC(=O)CNC(=O)[C@H](CC(C)C)NC(=O)[C@@H](N)CSSC[C@@H](C(=O)O)NC(=O)[C@H](CC(C)C)N(C)C(=O)[C@H](CCCCN)NC(=O)CNC1=O` [C L G V L G K nL C] (H-CLGVLGK[NMeL]C-OH; disulfide 1-9) it is 240 µg/mL.
For `CC(C)C[C@@H]1NC(=O)[C@H](C(C)C)NC(=O)CNC(=O)[C@H](CC(C)C)NC(=O)[C@@H](N)CSSC[C@@H](C(=O)O)NC(=O)[C@H](c2ccccc2)NC(=O)[C@H](CCCCN)NC(=O)CNC1=O` [C L G V L G K pG C] (H-CLGVLGK[Phg]C-OH; disulfide 1-9), the “with ACA 6501 150 ug/mL” value is 80 µg/mL.
The figure for `CC(C)C[C@@H]1NC(=O)[C@H](CCCN)NC(=O)CNC(=O)[C@H](CC(C)C)NC(=O)[C@H](C(C)C)NC(=O)CNC(=O)[C@H](CC(C)C)NC(=O)[C@@H](N)CSSC[C@@H](C(=O)O)NC1=O` [C L G V L G Or L C] (H-CLGVLG[Orn]LC-OH; disulfide 1-9) is 40 µg/mL.
In the case of `CC(C)C[C@@H]1NC(=O)[C@H](C(C)C)NC(=O)CNC(=O)[C@H](CC(C)C)NC(=O)[C@@H](N)CSSC[C@@H](C(=O)O)NC(=O)[C@H](CC(C)C)NC(=O)[C@@H]2CCCN2C(=O)CNC1=O` [C L G V L G P L C] (H-CLGVLGPLC-OH; disulfide 1-9), the “with ACA 6501 150 ug/mL” value turned out to be 160 µg/mL.
With `CC(C)C[C@@H]1NC(=O)[C@H](CCCNC(=N)N)NC(=O)CNC(=O)[C@H](CC(C)C)NC(=O)[C@H](C(C)C)NC(=O)CNC(=O)[C@H](CC(C)C)NC(=O)[C@@H](N)CSSC[C@@H](C(=O)O)NC1=O` [C L G V L G R L C] (H-CLGVLGRLC-OH; disulfide 1-9), the “with ACA 6501 150 ug/mL” value amounted to 160 µg/mL.
The result for `CC(C)C[C@@H]1NC(=O)[C@H](C(C)C)NC(=O)CNC(=O)[C@H](CC(C)C)NC(=O)[C@@H](N)CSSC[C@@H](C(=O)O)NC(=O)[C@H](CC(C)C)NC(=O)C(C)(C)NC(=O)CNC1=O` [C L G V L G aiB L C] (H-CLGVLG[Aib]LC-OH; disulfide 1-9) reads 460 µg/mL.
Regarding `CC(C)C[C@@H]1NC(=O)[C@H](C(C)C)NC(=O)CNC(=O)[C@H](CC(C)C)NC(=O)[C@@H](N)CSSC[C@@H](C(=O)O)NC(=O)[C@H](CC(C)C)NC(=O)[C@@H](CCCCN)NC(=O)CNC1=O` [C L G V L G dK L C] (H-CLGVLG[dK]LC-OH; disulfide 1-9), the “with ACA 6501 150 ug/mL” value amounted to 170 µg/mL.
For `CC(C)C[C@@H]1NC(=O)[C@H](C(C)C)NC(=O)CNC(=O)[C@H](CC(C)C)NC(=O)[C@@H](N)CSSC[C@@H](C(=O)O)NC(=O)[C@@H](CC(C)C)NC(=O)[C@@H](CCCCN)NC(=O)CNC1=O` [C L G V L G dK dL C] (H-CLGVLG[dK][dL]C-OH; disulfide 1-9), the “with ACA 6501 150 ug/mL” value amounted to 150 µg/mL.
The result for `CC(C)C[C@@H]1NC(=O)[C@H](C(C)C)NC(=O)CNC(=O)[C@H](CC(C)C)NC(=O)[C@@H](N)CSSC[C@@H](C(=O)O)NC(=O)[C@@H](CC(C)C)NC(=O)[C@@H](CC(C)C)NC(=O)CNC1=O` [C L G V L G dL dL C] (H-CLGVLG[dL][dL]C-OH; disulfide 1-9) reads 140 µg/mL.
